Experimental data as given in patent publication US9441012B2, “Fluorinated epoxyketone-based compounds and uses thereof as proteasome inhibitors” (FLUORINOV PHARMA INC., priority 2012, dated 2016).

Key:
Experiment in all cases: NCI 60 human tumor cell line screen (SRB)
Format in all cases: cell-based
786-0 = 786-0 (Renal Cancer); 48 h
Method in brief: (§1)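 Cells plated 24 h before dosing, with time-zero plates TCA-fixed at drug addition; five concentrations (10-fold or ½-log dilutions) added and incubated 48 h at 37 °C, 5% CO2. Adherent cells fixed with 10% TCA, stained with 0.4% SRB, absorbance read at 515 nm; GI50, TGI and LC50 derived from percentage growth versus time zero and control.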

KM12 = KM12 (Colon Cancer); 48 h
Method in brief: as §1

OVCAR-3 = OVCAR-3 (Ovarian Cancer); 48 h
Method in brief: as §1

UO-31 = UO-31 (Renal Cancer); 48 h
Method in brief: as §1

LOX IMVI = LOX IMVI (Melanoma); 48 h
Method in brief: as §1

SF-295 = SF-295 (CNS Cancer); 48 h
Method in brief: as §1

COLO 205 = COLO 205 (Colon Cancer); 48 h
Method in brief: as §1

M14 = M14 (Melanoma); 48 h
Method in brief: as §1

HL-60(TB) = HL-60(TB) (Leukemia); 48 h
Method in brief: as §1

NCI-H322M = NCI-H322M (Non-Small Cell Lung Cancer); 48 h
Method in brief: as §1

SW-620 = SW-620 (Colon Cancer); 48 h
Method in brief: as §1

BT-549 = BT-549 (Breast Cancer); 48 h
Method in brief: as §1

Row | SMILES | Log10GI50 (786-0) | Log10LC50 (786-0) | Log10TGI50 (786-0) | Log10GI50 (KM12) | Log10LC50 (KM12) | Log10TGI50 (KM12) | Log10GI50 (OVCAR-3) | Log10LC50 (OVCAR-3) | Log10TGI50 (OVCAR-3) | Log10GI50 (UO-31) | Log10LC50 (UO-31) | Log10TGI50 (UO-31) | Log10GI50 (LOX IMVI) | Log10LC50 (LOX IMVI) | Log10TGI50 (LOX IMVI) | Log10GI50 (SF-295) | Log10LC50 (SF-295) | Log10TGI50 (SF-295) | Log10GI50 (COLO 205) | Log10LC50 (COLO 205) | also measured
1 | CC(C)C[C@H](NC(=O)[C@H](Cc1ccccc1)NC(=O)[C@H](COC(F)F)NC(=O)CN1CCOCC1)C(=O)[C@@]1(C)CO1 [Example 25, (2S)-2-[[(2S)-3-(difluoromethoxy)-2-[(2-morpholinoacetyl)amino]propanoyl]amino]-N-[(1S)-3-methyl-1-[(2R)-2-methyloxirane-2-carbonyl]butyl]-3-phenyl-propanamide] | −7.20 | −5.44 | −6.49 | −7.72 | −7.06 | −7.39 | −7.66 | −6.97 | −7.33 | −6.62 | −5.17 | −5.95 | −7.73 | −7.10 | −7.42 | −7.68 | −6.49 | −7.26 | −7.39 | −6.21 | Log10TGI50 (COLO 205): −6.76; Log10GI50 (M14): −7.48; Log10LC50 (M14): >−4.00; Log10TGI50 (M14): −6.71; Log10GI50 (HL-60(TB)): −7.45; Log10LC50 (HL-60(TB)): >−4.00; Log10TGI50 (HL-60(TB)): −6.35; Log10GI50 (NCI-H322M): −7.10; Log10LC50 (NCI-H322M): >−4.00; Log10TGI50 (NCI-H322M): −6.33; Log10GI50 (SW-620): −7.41; Log10LC50 (SW-620): >−4.00; Log10TGI50 (SW-620): −5.93; Log10GI50 (BT-549): −7.73; Log10LC50 (BT-549): −7.05; Log10TGI50 (BT-549): −7.39
2 | C[C@]1(C(=O)[C@H](Cc2ccccc2)NC(=O)[C@H](Cc2ccccc2)NC(=O)[C@H](COC(F)F)NC(=O)CN2CCOCC2)CO1 [Example 29] | −6.55 | −4.87 | −5.96 | −7.35 | −6.27 | −6.77 | −7.35 | −5.66 | −6.71 | −6.46 | −4.62 | −5.71 | −7.50 | −6.35 | −6.90 | −7.19 | −5.94 | −6.55 | −6.90 | −5.34 | Log10TGI50 (COLO 205): −6.32; Log10GI50 (M14): −7.21; Log10LC50 (M14): >−4.00; Log10TGI50 (M14): −5.85; Log10GI50 (NCI-H322M): −6.27; Log10LC50 (NCI-H322M): −4.18; Log10TGI50 (NCI-H322M): −5.52; Log10GI50 (SW-620): −7.40; Log10LC50 (SW-620): >−4.00; Log10TGI50 (SW-620): −4.92; Log10GI50 (BT-549): −7.26; Log10LC50 (BT-549): −4.94; Log10TGI50 (BT-549): −6.59
3 | Cc1ncc(C(=O)N[C@@H](COC(F)F)C(=O)N[C@@H](COC(F)F)C(=O)N[C@@H](Cc2ccccc2)C(=O)[C@@]2(C)CO2)s1 [Example 1, 2-methyl-thiazole-5-carboxylic acid ((S)-1-{(S)-1-[(S)-1-benzyl-2-((R)-2-methyloxiranyl)-2-oxo-ethylcarbamoyl]-2-difluoromethoxyethylcarbamoyl}-2-difluoromethoxyethyl)-amide] | −6.43 | >−4.00 | −4.62 | −6.88 | −6.10 | −6.49 | −7.46 | −6.30 | −6.90 | −5.84 | −4.59 | −5.32 | −6.96 | −6.16 | −6.56 | −7.17 | −4.88 | −6.24 | −6.22 | >−4.00 | Log10TGI50 (COLO 205): −4.85; Log10GI50 (M14): −6.86; Log10LC50 (M14): −4.35; Log10TGI50 (M14): −6.24; Log10GI50 (HL-60(TB)): −6.56; Log10LC50 (HL-60(TB)): >−4.00; Log10TGI50 (HL-60(TB)): >−4.00; Log10GI50 (NCI-H322M): −5.54; Log10LC50 (NCI-H322M): −4.23; Log10TGI50 (NCI-H322M): −4.74; Log10GI50 (SW-620): −7.39; Log10LC50 (SW-620): −4.40; Log10TGI50 (SW-620): −5.95; Log10GI50 (BT-549): −7.49; Log10LC50 (BT-549): −5.74; Log10TGI50 (BT-549): −6.87
4 | C[C@]1(C(=O)[C@H](Cc2ccccc2)NC(=O)[C@H](COC(F)F)NC(=O)[C@H](COC(F)F)NC(=O)CN2CCOCC2)CO1 [Example 26, (S)-N-{(S)-1-[(S)-1-Benzyl-2-((R)-2-methyl-oxiranyl)-2-oxo-ethylcarbamoyl]-2-difluoromethoxyethyl}-3-difluoromethoxy-2-(2-morpholin-4-yl-acetylamino)-propio-namide] | −7.20 | −5.44 | −6.49 | −7.72 | −7.06 | −7.39 | −7.66 | −6.97 | −7.33 | −6.62 | −5.17 | −5.95 | −7.73 | −7.10 | −7.42 | −7.68 | −6.49 | −7.26 | −7.39 | −6.21 | Log10TGI50 (COLO 205): −6.76; Log10GI50 (M14): −7.48; Log10LC50 (M14): >−4.00; Log10TGI50 (M14): −6.71; Log10GI50 (HL-60(TB)): −7.45; Log10LC50 (HL-60(TB)): >−4.00; Log10TGI50 (HL-60(TB)): −6.35; Log10GI50 (NCI-H322M): −7.10; Log10LC50 (NCI-H322M): >−4.00; Log10TGI50 (NCI-H322M): −6.33; Log10GI50 (SW-620): −7.41; Log10LC50 (SW-620): >−4.00; Log10TGI50 (SW-620): −5.93; Log10GI50 (BT-549): −7.73; Log10LC50 (BT-549): −7.05; Log10TGI50 (BT-549): −7.39
